“Also recorded” adds a separate entry of the source. Where two headings read alike, the source gives them in different places. Non-standard residues stand in square brackets, D forms with d. Residues, ends and D or L forms follow the SMILES beside them. *: point of attachment. X1 = CC(=O)O[C@@]12CO[C@@H]1C[C@H](O)[C@@]1(C)C(=O)[C@H](O)C3=C(C)[C@@H](OC(=O)[C@H](OC(=O)CCC(=O)*)[C@@H](NC(=O)OC(C)(C)C)c4ccccc4)C[C@@](O)([C@@H](OC(=O)c4ccccc4)[C@H]21)C3(C)C; Nle = CCCC[C@H](N)C(=O)O

Usually half-life stands for the time in which the quantity being followed falls by half.

Data set [1] is described as follows: in vitro stability in mouse plasma. The class given is in vitro ADME. The following applies: 37° C. Here is the method: Additional testing was conducted to study the stability of formulated TH1902 in mouse plasma. TH1902 was either solubilized in […] or formulated with solubilizing agents (Formulation: DMSO/Solutol™ HS15/Tween™-80/EtOH/Sol. Ac. Ac./D5W/water in the following V/V proportion 5/6/2.5/0.75/0.005/69/16.75). TH1902 was incubated in mouse plasma at 37° C. for the indicated times. Plasma proteins were precipitated by the addition of 4 volumes of ACN (87%) with formic acid (0.125%) followed by centrifugation (10,000 rpm×5 min). Supernatants were injected in UPLC/MS. Peak area corresponding to TH1902 was calculated and compared to time 0.

Data set [2] relates to SK-MEL-28 xenografts. The class given is in vivo, mice. Here is the method: (§1) Briefly, stock solution of formulated TH1902 was prepared as sterile aliquots of 10 mg/mL frozen liquid solutions (see below). On the day of animal dosing, frozen aliquots were thawed 30 minutes at room temperature then diluted with sterile 5% dextrose injection, USP (D5W) to the desired concentration for injection (i.e. typically 5.4 or 1.35 mg/mL).
(§2) TH1902 frozen stock solution were prepared as follow: • 1. Make the TH1902 diluent solution (Diluent) the day before the solubilization. Diluent: 10% Tween™ 80 in D5W USP (w/v) with 0.04% of formic acid (v/v), ˜pH 2.9. Leave solution at room temperature until TH1902 solubilization (next day). • 2. Weigh 60 mg of TH1902 API into a 14 ml glass vial with screw caps. Adjust TH1902 weights to reflect TH1902 purity according to the certificate of analysis. • 3. Add 90% of diluent solution needed to prepare the TH1902 10 mg/ml stock solution. • 4. Swirl the content of the bottle to form opaque mixture and place a stir bar. • 5. Place bottle in the heating apparatus (glass water bath and mount for holding vial with thermometer and stir bar on a digital heating plate). Begin mixing the content of the bottle. • 6. Gradually increase the temperature of water bath in increments of 5° C. every 30 minutes until mixture turns clear (temperature ramping up to 45° C. over a period of time of about 165 to 180 minutes). […] Transfer the formulation to a graduated glass cylinder and bring to final calculated volume with diluent solution. • 9. […] Perform UPLC analysis against a TH1902 standard curve for quantification and purity assessment. • 11. […]
Two of the sortilin-expressing melanoma cancer cell lines (SK-MEL-28 and B16-F10) were used to monitor whether TH1902 impeded the growth of the cells when administered at 35 mg/kg/week, versus unconjugated docetaxel at 15 mg/kg/week. This is the maximum tolerated dose (MTD) for free docetaxel, and the TH1902 formulation contains the equivalent quantity of docetaxel within this peptide drug conjugate. […] This difference was quantified when the control group reached the tumor volume endpoint at day-42. […]

The subject of data set [3] is MDA-MB-231/Luc (triple-negative breast cancer) xenografts. The experiment in a line: tumor growth inhibition, MDA-MB-231/Luc xenografts in nude mice, TH1902 formulations (Examples 3A, 3B). The class given is in vivo.
Procedure: TH1902 and docetaxel (supplied by Wonda Science Inc.) were used. […] Both treatments were administered intravenously, on a per week basis over 6 weeks.
8 different formulations comprising TH1902 were tested.
These are derived from a triple-negative breast cancer (TNBC) and they stably express firefly luciferase. […] Cell counts and cell viability were assessed with a BioRad TC20™ automated cell counter.
60 young adult, female, homozygous nude mice (Crl:CD1-Foxn1^nu), obtained from Charles River Canada Inc. (St-Constant, Quebec) were used in this study. Healthy mice were selected based on normal veterinary examination.
Tumor growth was monitored, and mice were randomly assigned to groups the vehicle group, docetaxel group or one of the 8 TH1902 formulations group (6 mice per group) for further treatment when tumor volumes reached 40-140 mm^3 or after 2-3 days of significant increase. Experimental procedures
Mice were first anesthetized with isoflurane and oxygen. Two-dimensional measurements were taken with electronic calipers during the study and tumor volume was calculated using the following formula: tumor volume (mm^3)=0.52*a*b^2, where 0.52 is a constant to calculate the volume of an ellipsoid (π/6), where “a” is the longest diameter and “b” is the shortest diameter[3]. […]
All mice were observed daily for changes in appearance and behavior, and events recorded when appropriate. […]
The test system of data set [4] is PANC-1 subcutaneous tumor xenografts. The experiment in a line: pancreatic cancer xenograft model (PANC-1). The class given is in vivo, mice. The following applies: vs vehicle. As to the method: as §1
as §2, with “6.” for “6. Gradually increase the temperature of water bath in increments of 5° C. every 30 minutes until mixture turns clear (temperature ramping up to 45° C. over a period of time of about 165 to 180 minutes).”

On to `CCCC[C@H](NC(=O)[C@H](CC(N)=O)NC(=O)[C@H](CCCNC(=N)N)NC(=O)[C@@H](NC(=O)CNC(=O)[C@H](C)NC(=O)[C@H](CCCCNC(=O)CCC(=O)O[C@@H](C(=O)O[C@H]1C[C@@]2(O)[C@@H](OC(=O)c3ccccc3)[C@@H]3[C@]4(OC(C)=O)CO[C@@H]4C[C@H](O)[C@@]3(C)C(=O)[C@H](O)C(=C1C)C2(C)C)[C@@H](NC(=O)OC(C)(C)C)c1ccccc1)NC(=O)[C@H](C)NC(=O)[C@H](CCCNC(=N)N)NC(=O)[C@@H](NC(=O)CNC(C)=O)C(C)C)C(C)C)C(=O)N[C@@H](Cc1ccccc1)C(=O)N[C@@H](CCCCNC(=O)CCC(=O)O[C@@H](C(=O)O[C@H]1C[C@@]2(O)[C@@H](OC(=O)c3ccccc3)[C@@H]3[C@]4(OC(C)=O)CO[C@@H]4C[C@H](O)[C@@]3(C)C(=O)[C@H](O)C(=C1C)C2(C)C)[C@@H](NC(=O)OC(C)(C)C)c1ccccc1)C(=O)N[C@@H](CO)C(=O)N[C@@H](CCC(=O)O)C(=O)N[C@@H](CO)C(=O)N[C@@H](Cc1ccc(O)cc1)C(=O)O` [TH1902, Acetyl-GVRAK(docetaxel)AGVRN(Nle)FK(docetaxel)SESY] (Ac-GVRAK(X1)AGVRN[Nle]FK(X1)SESY-OH), for which the half-life in data set [1] (TH1902 formulated with solubilizing agents (DMSO/Solutol HS15/Tween-80/EtOH/Sol. Ac. Ac./D5W/water 5/6/2.5/0.75/0.005/69/16.75)) is 30 h; in data set [1] (TH1902 solubilized in DMSO), 5 h. Also, the “body weight of mice” value in data set [2] (TH1902 35 mg/kg/week, docetaxel 15 mg/kg/week) is “remained within −20% endpoint limit”.
`CC(=O)O[C@@]12CO[C@@H]1C[C@H](O)[C@@]1(C)C(=O)[C@H](O)C3=C(C)[C@@H](OC(=O)[C@H](O)[C@@H](NC(=O)OC(C)(C)C)c4ccccc4)C[C@@](O)([C@@H](OC(=O)c4ccccc4)[C@H]21)C3(C)C` [docetaxel]: the “tumor volumes / tumor growth up to Day 24” value in data set [3] (8.75 mg/kg/week TH1902, docetaxel at ¼ MTD, vs vehicle, FIG. 16) is “grow slightly faster than those in the control animals”. The “ΔT/ΔC (%) (at endpoint, Day-24)” value in data set [3] (8.75 mg/kg/week of TH1902 (docetaxel 3.75 mg/kg)) stood at 143%. For the same molecule, in data set [4] (docetaxel 3.75 mg/kg, TH1902 8.75 mg/kg, day 21 and extended), the “tumor growth / tumor size, low dose” value is on record as “very similar in size to those treated with vehicle; also recorded: indistinguishable”. The “tumor growth / tumor size, high dose” value in data set [4] (docetaxel 15 mg/kg (MTD), TH1902 35 mg/kg, day 21) was “Decreased tumor growth; also recorded: significant decreases in tumor size”. Besides, the “tumor growth / tumor volumes” value in data set [2] (TH1902 35 mg/kg/week, docetaxel 15 mg/kg/week, endpoint day-42, FIG. 27) is recorded as “inhibited tumor growth”. Moreover, in data set [2] (mouse, in vivo), the “body weight of mice” value was “remained within −20% endpoint limit”.
